Measurements published in US10208056B2, “Condensed tricyclic compounds as protein kinase inhibitors” (FUNDACIÓN DEL SECTOR PÚBLICO ESTATAL CENTRO NACIONAL DE …, priority 2015, dated 2019).

Legend:
[1] = tested on: SKMEL19; experiment: Combination assay, SKMEL19; format: cell-based; details: Homo sapiens, SK-MEL19; SKMEL19, chemotherapeutic alone; read-out: Chemo GI50
Description: (§1) The combination index (CI) of combinations of certain example compounds and various chemotherapeutic agents in the CellTitetI-Glo® in vitro cell proliferation assays may be tested. A combination index score is calculated by the Chou and Talalay method (CalcuSyn software, Biosoft). The strength of synergy is scored using the ranking system Chou and Talalay: CI less than 0.8 indicates synergy, CI between 0.8 and 1.2 indicates additivity and CI greater than 1.2 indicates antagonism.
(§2) The EC50 values of representative combinations are also calculated. The individually measured EC50 values of the chemotherapeutic agent and the example compounds are compared to the EC50 value of the combination. The cell lines are characterised by tumor type. Combination assays are performed as described in: “Pim 1 kinase inhibitor ETP-45299 suppresses cellular proliferation and synergizes with PI3K inhibition”. Blanco-Aparicio, Carmen; Collazo, Ana Maria Garcia; Oyarzabal, Julen; Leal, Juan F.; Albaran, Maria Isabel; Lima, Francisco Ramos; Pequeno, Belen; Ajenjo, Nuria; Becerra, Mercedes; Alfonso, Patricia; Reymundo, Maria Isabel; Palacios, Irene; Mateos, Genoveva; Quinones, Helena; Corrionero, Ana; Carnero, Amancio; Pevarello, Paolo; Lopez, Ana Rodriguez; Fominaya, Jesus; Pastor, Joaquin; Bischoff, James R. Cancer Letters (Shannon, Ireland) 2011, 300(2), 145-153

[2] = tested on: SW620; experiment: Combination assay, SW620; format: cell-based, human; details: Homo sapiens, SW-620; SW620, chemotherapeutic alone; read-out: Chemo GI50
Description: as §1, §2

[3] = tested on: A549; experiment: Combination assay, A549; format: cell-based; details: Homo sapiens; A549, chemotherapeutic alone; read-out: Chemo GI50
Description: as §1, §2

[4] = tested on: MDAMB231; experiment: Combination assay, MDAMB231; format: cell-based; details: Homo sapiens, MDA-MB-231; MDAMB231, chemotherapeutic alone; read-out: Chemo GI50
Description: as §1, §2

[5] = tested on: BXPC-3; experiment: Combination assay, BXPC-3; format: cell-based; details: Homo sapiens; BXPC-3, chemotherapeutic alone; read-out: Chemo GI50
Description: as §1, §2

[6] = biological target: Haspin kinase (Homo sapiens (Human), UniProt Q8TF76); experiment: Haspin kinase assay (ADP-Glo); format: biochemical; details: ATP 150 μM
Sequence of Haspin kinase (Q8TF76 484-798): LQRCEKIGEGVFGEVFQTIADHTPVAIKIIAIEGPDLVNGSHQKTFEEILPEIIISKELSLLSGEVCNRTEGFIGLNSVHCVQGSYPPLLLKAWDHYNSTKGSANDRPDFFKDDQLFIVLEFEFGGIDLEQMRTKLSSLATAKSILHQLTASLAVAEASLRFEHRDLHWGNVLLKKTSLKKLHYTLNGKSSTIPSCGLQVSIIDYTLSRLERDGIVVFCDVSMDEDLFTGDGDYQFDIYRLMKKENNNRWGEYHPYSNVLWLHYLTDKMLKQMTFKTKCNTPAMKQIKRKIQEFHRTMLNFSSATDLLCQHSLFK
Summary of the method: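 ADP-Glo luminescence measured the intrinsic ATPase activity, without peptide substrate, of the GST-tagged human Haspin kinase domain (20 nM) at 150 μM ATP. Reactions ran 60 min at 30 °C in HEPES pH 7.4 buffer with 10 mM MgCl2 and 1% DMSO. Inhibition was calculated against no-compound controls across 1:3 dilution series.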

[7] = tested on: SW620 cells; experiment: Colony formation assay; format: cell-based, human; details: SW620 cells treated 11 days
Description: The in vitro potency of the compounds was measured by colony formation assays. SW620 cells in logarithmic growth phase are plated at 800 cells per well in 6-well plates (Solmeglas 13118) in RPMI media (Sigma-Aldrich R6504) supplemented with 10% foetal bovine serum (Sigma-Aldrich F7524), Penicillin/Streptomycin solution diluted 1:100 (Gibco 15070-063), and fungizone (Gibco, 15290-018), and allowed to adhere overnight at 37° C. in 5% CO2. Compounds are then added to the cell media from a final concentration of 10 μM in 10-fold serial dilutions and the cells are incubated at 37° C. in 5% CO2. Every three days the medium is changed by fresh medium and compounds are added again. After 11 days, colonies are washed with PBS and fixed in 0.5% crystal violet (Sigma-Aldrich Ref. V5265), 6% glutaraldehide (Sigma-Aldrich Ref. G5882) for 30 minutes. After extensive washing, colonies are dissolved in 2 ml of 10% glacial acetic acid (Sigma-Aldrich Ref. 537020) and absorbance at 590 nm is measured in the Victor 1420 Multilabel Counter (Perkin Elmer). The absorbance in cells treated with DMSO is taken as hundred percent of proliferation. The percentage of proliferation is finally plotted against concentration for each compound and EC50s for colony formation inhibition are calculated using ActivityBase from IDBS.

[8] = biological target: CDK19/Cyclin C (Homo sapiens (Human), UniProt Q9BWU1); experiment: CDK19/Cyclin C binding assay (LanthaScreen Eu-Kinase Binding Assay); details: read-out: CDK19-CYCC IC50
Sequence of CDK19/Cyclin C (Q9BWU1 whole entry): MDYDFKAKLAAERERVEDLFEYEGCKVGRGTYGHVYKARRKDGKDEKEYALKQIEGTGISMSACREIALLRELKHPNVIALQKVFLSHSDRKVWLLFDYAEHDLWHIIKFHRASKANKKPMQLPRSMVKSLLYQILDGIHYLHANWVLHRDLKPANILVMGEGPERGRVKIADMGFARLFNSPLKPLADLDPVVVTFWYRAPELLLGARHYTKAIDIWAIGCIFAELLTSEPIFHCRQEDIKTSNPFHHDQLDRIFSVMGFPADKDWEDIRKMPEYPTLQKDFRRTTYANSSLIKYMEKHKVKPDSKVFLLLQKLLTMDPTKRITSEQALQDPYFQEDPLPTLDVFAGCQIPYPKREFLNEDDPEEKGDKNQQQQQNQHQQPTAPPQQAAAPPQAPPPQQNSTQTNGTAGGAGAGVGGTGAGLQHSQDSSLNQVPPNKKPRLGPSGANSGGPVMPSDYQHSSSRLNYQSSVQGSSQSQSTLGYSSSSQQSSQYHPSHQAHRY
Sequence of CDK19/Cyclin C (P24863 whole entry partner): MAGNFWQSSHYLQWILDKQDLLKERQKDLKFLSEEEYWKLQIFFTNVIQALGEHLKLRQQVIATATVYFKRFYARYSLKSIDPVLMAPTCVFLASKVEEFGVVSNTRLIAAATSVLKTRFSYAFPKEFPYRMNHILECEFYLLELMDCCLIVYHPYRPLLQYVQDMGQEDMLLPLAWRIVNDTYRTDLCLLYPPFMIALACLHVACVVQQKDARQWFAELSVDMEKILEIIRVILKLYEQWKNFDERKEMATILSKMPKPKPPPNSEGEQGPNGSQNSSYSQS
Summary of the method: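 LanthaScreen TR-FRET tracer-displacement format with 2 nM Cdk19-Cyclin C, 20 nM tracer and 2 nM Eu-anti-GST antibody. The buffer was 50 mM HEPES pH 7.5, 10 mM MgCl2, 1 mM EGTA, 0.01% Brij-35, with 1% DMSO final. Compounds were tested as 1:3 serial dilutions and incubated for 60 min at 25 °C.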

[9] = biological target: intracellular HASPIN (Homo sapiens (Human), UniProt Q8TF76); experiment: Cellular HASPIN inhibition assay, western blot phospho H3T3 in synchronized SW620 cells; format: cell-based; details: semiquantitative, read-out: SW620 PH3(T3) in synchronized cells
Sequence of intracellular HASPIN (Q8TF76 whole entry): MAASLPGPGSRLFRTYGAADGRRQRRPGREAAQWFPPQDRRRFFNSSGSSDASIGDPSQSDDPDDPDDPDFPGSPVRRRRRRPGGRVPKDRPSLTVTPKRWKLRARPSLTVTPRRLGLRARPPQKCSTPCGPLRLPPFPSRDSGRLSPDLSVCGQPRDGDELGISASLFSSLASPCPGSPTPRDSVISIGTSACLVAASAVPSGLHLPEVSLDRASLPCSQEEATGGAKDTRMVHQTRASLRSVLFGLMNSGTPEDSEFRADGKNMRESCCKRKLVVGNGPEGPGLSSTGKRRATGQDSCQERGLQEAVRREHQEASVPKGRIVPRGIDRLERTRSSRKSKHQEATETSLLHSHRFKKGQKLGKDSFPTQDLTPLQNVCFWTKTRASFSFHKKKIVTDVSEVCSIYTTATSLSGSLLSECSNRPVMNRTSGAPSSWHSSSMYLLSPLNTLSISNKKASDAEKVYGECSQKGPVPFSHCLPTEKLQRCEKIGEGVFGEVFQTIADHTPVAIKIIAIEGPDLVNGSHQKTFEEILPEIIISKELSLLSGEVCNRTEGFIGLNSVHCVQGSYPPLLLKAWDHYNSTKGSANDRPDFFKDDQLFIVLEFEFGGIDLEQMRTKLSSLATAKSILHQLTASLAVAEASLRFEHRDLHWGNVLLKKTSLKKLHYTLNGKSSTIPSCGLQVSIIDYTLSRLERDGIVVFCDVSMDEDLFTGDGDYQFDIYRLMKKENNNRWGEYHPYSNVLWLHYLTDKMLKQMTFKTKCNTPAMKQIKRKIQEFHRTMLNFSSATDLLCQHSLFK
Description: Compounds can be screened for their ability to inhibit intracellular HASPIN using a western blot assay to detect phosphorylation of the HASPIN substrate H3T3 in synchronized cells. SW620 cells are plated at 200000 cells per well in 6-well plates (Solmeglas 13118) in RPMI media (Sigma-Aldrich R6504) supplemented with 10% foetal bovine serum (Sigma-Aldrich F7524), Penicillin/Streptomycin solution diluted 1:100 (Gibco 15070-063), and fungizone (Gibco, 15290-018), and allowed to adhere overnight at 37° C. in 5% CO2. Cells are then treated 16 h hours with Nocadazole (Sigma-Aldrich M1404) at 250 ng/ml to arrest them in mitosis. Proteasoma inhibitor MG132 (Sigma-Aldrich C2211) is added to a final concentration of […] to keep cells arrested in mitosis. Compounds are then added to the cell media from a final concentration of 10 μM in 10-fold serial dilutions and the cells are incubated at 37° C. in 5% CO2. After 1 hour and 30 minutes of treatment with the compounds, the cells are washed in PBS, lysed adding 100 μl of protein lysis buffer (62.5 mM Tris pH 6.8 al 6.25%, 2% SDS y 10% glycerol) incubation 10 minutes at room temperature and heating at 95° C. 10 min. The protein content of the lysates is determined by DC protein assay (Biorad, Ref. 5000116). The proteins are resolved by SDS-PAGE and transferred to nitrocellulose membrane (VWR International eurolab, Ref. 732-4007). The membranes are incubated overnight at 4° C. with antibodies specific for total H3 (Millipore #07424), phosphothreonine-3 H3 (Cell Signaling Ref. 14269) they are washed and then incubated with IRDye800 conjugated anti-mouse (Pierce/Cultek, 35521) and Alexa Fluor 680 goat anti-rabbit IgG secondary antibodies (Invitrogen, A21076). The bands are visualized and quantified using an Odyssey infrared imaging system (Li-Cor Biosciences). The percentage of phosphorylated H3 vs total H3 in synchronized cells is taken as hundred percent of phosphorylation. The percentage of H3 phosphorylation is finally plotted against concentration for each compound and EC50s for intracellular HASPIN inhibition are calculated using ActivityBase from IDBS.

[10] = biological target: T1, intracellular CDK8 (Homo sapiens (Human), UniProt P49336); experiment: Cellular CDK8 inhibition assay, western blot P-STAT1 (S727) in IFN-γ treated SW620 cells; format: cell-based; details: SW620, IFNγ treated, semiquantitative; read-out: SW620 P-STAT1(S727) w IFNγ
T1 sequence (P49336 whole entry): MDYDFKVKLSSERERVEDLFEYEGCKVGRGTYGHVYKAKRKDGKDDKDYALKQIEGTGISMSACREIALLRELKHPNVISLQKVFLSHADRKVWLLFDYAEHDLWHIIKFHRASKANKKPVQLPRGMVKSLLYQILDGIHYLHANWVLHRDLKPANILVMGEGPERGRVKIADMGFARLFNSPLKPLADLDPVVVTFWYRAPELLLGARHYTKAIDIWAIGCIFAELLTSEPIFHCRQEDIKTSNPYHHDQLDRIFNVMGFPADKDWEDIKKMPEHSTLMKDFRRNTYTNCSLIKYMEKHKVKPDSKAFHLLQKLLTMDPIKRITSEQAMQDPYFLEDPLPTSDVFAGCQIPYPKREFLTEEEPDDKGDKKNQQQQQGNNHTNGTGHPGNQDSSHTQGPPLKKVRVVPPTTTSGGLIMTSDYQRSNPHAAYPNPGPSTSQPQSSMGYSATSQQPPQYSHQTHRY
T1 sequence (P24863 whole entry partner): as the sequence (P24863 whole entry partner) above
T1 sequence (Q93074 whole entry partner): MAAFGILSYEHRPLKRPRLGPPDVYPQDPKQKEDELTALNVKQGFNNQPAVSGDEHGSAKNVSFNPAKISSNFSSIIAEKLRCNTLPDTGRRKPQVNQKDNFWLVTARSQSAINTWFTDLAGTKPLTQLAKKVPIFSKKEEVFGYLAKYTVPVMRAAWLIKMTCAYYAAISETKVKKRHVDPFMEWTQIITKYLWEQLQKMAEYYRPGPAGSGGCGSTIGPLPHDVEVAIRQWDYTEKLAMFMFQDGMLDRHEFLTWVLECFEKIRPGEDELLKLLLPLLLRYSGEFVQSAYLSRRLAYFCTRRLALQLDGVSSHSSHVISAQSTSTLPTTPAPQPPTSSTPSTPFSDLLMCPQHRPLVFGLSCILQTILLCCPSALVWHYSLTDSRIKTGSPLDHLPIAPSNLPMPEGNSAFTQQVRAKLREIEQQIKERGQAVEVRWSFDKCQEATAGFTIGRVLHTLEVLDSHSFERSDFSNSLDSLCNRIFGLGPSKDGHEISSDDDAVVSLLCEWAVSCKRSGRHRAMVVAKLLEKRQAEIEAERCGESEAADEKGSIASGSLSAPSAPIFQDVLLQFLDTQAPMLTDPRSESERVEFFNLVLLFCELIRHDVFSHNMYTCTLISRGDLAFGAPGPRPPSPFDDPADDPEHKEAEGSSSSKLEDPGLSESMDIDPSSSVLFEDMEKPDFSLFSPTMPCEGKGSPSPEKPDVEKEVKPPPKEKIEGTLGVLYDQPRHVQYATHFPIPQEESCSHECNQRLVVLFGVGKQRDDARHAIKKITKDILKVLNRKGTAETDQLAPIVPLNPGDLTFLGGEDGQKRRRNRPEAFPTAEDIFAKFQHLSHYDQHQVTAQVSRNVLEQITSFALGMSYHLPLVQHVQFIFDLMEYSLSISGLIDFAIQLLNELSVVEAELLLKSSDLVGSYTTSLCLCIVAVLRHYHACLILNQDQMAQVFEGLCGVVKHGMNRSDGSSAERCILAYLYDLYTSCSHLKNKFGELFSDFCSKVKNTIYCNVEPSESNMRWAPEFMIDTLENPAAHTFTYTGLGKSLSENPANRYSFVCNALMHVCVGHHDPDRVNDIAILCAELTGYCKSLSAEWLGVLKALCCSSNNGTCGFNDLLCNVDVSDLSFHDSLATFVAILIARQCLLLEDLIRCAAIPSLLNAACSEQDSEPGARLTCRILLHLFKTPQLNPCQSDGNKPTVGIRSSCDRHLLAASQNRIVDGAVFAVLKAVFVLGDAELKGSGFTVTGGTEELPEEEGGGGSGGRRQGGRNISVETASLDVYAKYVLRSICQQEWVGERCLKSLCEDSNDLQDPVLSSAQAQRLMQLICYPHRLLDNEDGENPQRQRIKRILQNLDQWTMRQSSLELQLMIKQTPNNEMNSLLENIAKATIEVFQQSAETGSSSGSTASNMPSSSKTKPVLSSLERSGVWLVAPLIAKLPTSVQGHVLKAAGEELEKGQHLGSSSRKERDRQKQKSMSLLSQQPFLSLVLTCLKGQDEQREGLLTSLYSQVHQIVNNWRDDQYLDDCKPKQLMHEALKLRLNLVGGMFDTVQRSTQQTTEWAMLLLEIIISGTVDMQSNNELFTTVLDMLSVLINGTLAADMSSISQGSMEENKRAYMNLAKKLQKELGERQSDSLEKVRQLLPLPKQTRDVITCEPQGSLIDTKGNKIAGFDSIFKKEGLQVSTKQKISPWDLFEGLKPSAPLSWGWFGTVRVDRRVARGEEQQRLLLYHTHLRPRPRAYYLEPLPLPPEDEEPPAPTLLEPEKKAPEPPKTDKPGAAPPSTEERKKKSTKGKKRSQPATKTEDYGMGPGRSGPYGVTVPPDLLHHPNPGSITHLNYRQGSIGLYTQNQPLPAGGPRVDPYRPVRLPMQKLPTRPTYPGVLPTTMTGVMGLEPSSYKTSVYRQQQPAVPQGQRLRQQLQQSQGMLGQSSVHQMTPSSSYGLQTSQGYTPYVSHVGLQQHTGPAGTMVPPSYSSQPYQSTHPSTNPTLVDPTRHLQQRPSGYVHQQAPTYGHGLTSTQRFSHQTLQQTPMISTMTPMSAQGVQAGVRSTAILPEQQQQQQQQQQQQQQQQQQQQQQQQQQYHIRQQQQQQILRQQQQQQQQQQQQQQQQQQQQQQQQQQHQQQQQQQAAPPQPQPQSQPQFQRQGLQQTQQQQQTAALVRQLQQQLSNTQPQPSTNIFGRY
Description: Compounds can be screened for their ability to inhibit intracellular CDK8 using a western blot assay to detect phosphorylation of the CDK8 substrate STAT1 (S727) in IFN-γ treated cells. SW620 cells are plated at 1*10^6 cells per well in 6-well plates (Solmeglas 13118) in RPMI media (Sigma-Aldrich R6504) supplemented with 10% foetal bovine serum (Sigma-Aldrich F7524), Penicillin/Streptomycin solution diluted 1:100 (Gibco 15070-063), and fungizone (Gibco, 15290-018), and allowed to adhere overnight at 37° C. in 5% CO2. Compounds are then added to the cell media from a final concentration of 10 μM in 10-fold serial dilutions and the cells are incubated at 37° C. in 5% CO2. After 1 hour, IFNγ (R&D systems Ref. RYD-285-IF-100) is added to a final concentration of […]. After 3 hours of treatment with IFNγ, the cells are washed in PBS, lysed adding 100 μl of protein lysis buffer (62.5 mM Tris pH 6.8 al 6.25%, 2% SDS y 10% glycerol) incubation 10 minutes at room temperature and heating at 95° C. 10 min. The protein content of the lysates is determined by DC protein assay (Biorad, Ref. 5000116). The proteins are resolved by SDS-PAGE and transferred to nitrocellulose membrane (VWR International eurolab, Ref. 732-4007). The membranes are incubated overnight at 4° C. with antibodies specific for total STAT1 (BD Transduction laboratory #610115), phosphoserine-727 STAT1 (Cell Signaling Ref. 9177) they are washed and then incubated with IRDye800 conjugated anti-mouse (Pierce/Cultek, 35521) and Alexa Fluor 680 goat anti-rabbit IgG secondary antibodies (Invitrogen, A21076). The bands are visualized and quantified using an Odyssey infrared imaging system (Li-Cor Biosciences). The percentage of phosphorylated STAT1 vs total STAT1 in cells treated with IFNγ is taken as hundred percent of phosphorylation. The percentage of STAT1 phosphorylation is finally plotted against concentration for each compound and EC50s for intracellular CDK8 inhibition are calculated using ActivityBase from IDBS.

[11] = biological target: CDK8/Cyclin C (Homo sapiens (Human), UniProt P49336); experiment: CDK8/Cyclin C binding assay (LanthaScreen Eu-Kinase Binding Assay); details: binding assay
Sequence of CDK8/Cyclin C (P49336 whole entry): as the sequence (P49336 whole entry) above
Sequence of CDK8/Cyclin C (P24863 whole entry partner): as the sequence (P24863 whole entry partner) above
Description: The enzyme has been purchase from Invitrogen (PV4402) as a dimer of full-length His-tagged recombinant human proteins.
Assays were performed in 384-well plates. The final read out was generated using an EnVision plate reader (Perkin-Elmer).

[12] = tested on: H3T3ph in tumoral cells from colon, breast and cervix; details: dose dependent; cited from earlier work
[13] = biological target: T1, intracellular CDK8; experiment: Endogenous phosphoSTAT1 inhibition in SW620 cells growing in 10% FBS; format: cell-based; details: semiquantitative, read-out: SW620 P-STAT1(S727)
Summary of the method: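 SW620 cells in 10% FBS treated 8 h with compound, then lysed and phospho-STAT1 measured relative to total STAT1.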

[14] = tested on: SW620; experiment: In vitro cell proliferation assay (CellTiter-Glo), SW620; format: cell-based, human; details: Homo sapiens, SW-620; growth inhibition, semiquantitative; read-out: GI50 SW620
[15] = tested on: Molm13; experiment: In vitro cell proliferation assay (CellTiter-Glo), Molm13; format: cell-based; details: Homo sapiens, MOLM-13; growth inhibition, semiquantitative; read-out: GI50 Molm13
[16] = tested on: MV4:11; experiment: In vitro cell proliferation assay (CellTiter-Glo), MV4:11; format: cell-based; details: Homo sapiens, MV4-11; growth inhibition, semiquantitative; read-out: GI50 MV4:11
[17] = tested on: MDA-MB-231; experiment: In vitro cell proliferation assay (CellTiter-Glo), MDA-MB-231; format: cell-based; details: Homo sapiens, MDA-MB-231; growth inhibition, semiquantitative; read-out: GI50 MDA-MB-231
[18] = tested on: HCT116; experiment: Combination assay, HCT116; format: cell-based; details: Homo sapiens, HCT-116; HCT116, chemotherapeutic alone; read-out: Chemo GI50
Description: as §1, §2

[19] = tested on: DU145; experiment: Combination assay, DU145; format: cell-based; details: Homo sapiens, DU-145; DU145, chemotherapeutic alone; read-out: Chemo GI50
Description: as §1
The EC50 values of representative combinations are also calculated. The individually measured EC50 values of the chemotherapeutic agent and the example compounds are compared to the EC50 value of the combination. The cell lines are characterised by tumor type. […] Blanco-Aparicio, Carmen; Collazo, Ana Maria Garcia; Oyarzabal, Julen; Leal, Juan F.; Albaran, Maria Isabel; Lima, Francisco Ramos; Pequeno, Belen; Ajenjo, Nuria; Becerra, Mercedes; Alfonso, Patricia; Reymundo, Maria Isabel; Palacios, Irene; Mateos, Genoveva; Quinones, Helena; Corrionero, Ana; Carnero, Amancio; Pevarello, Paolo; Lopez, Ana Rodriguez; Fominaya, Jesus; Pastor, Joaquin; Bischoff, James R. Cancer Letters (Shannon, Ireland) 2011, 300(2), 145-153

| GI50 [1] | GI50 [2] | GI50 [5] | IC50 [8] | EC50 [10] | IC50 [11] | SMILES | effect in colony forming assay [7] | also measured |
| --- | --- | --- | --- | --- | --- | --- | --- | --- |
| 250 nM | 250 nM | 62 nM | – | – | – | CN(NC(=O)CC(=O)NN(C)C(=S)c1ccccc1)C(=S)c1ccccc1 [Elesclomol, elesclomol, reference compound] | – | GI50 [3]: 250 nM; GI50 [4]: 250 nM |
| – | – | – | 97.3 nM | < 500 nM | 139 nM | COc1ccccc1-c1c2c(n(CCF)c1C(N)=O)-c1ccncc1OC2(C)C [Example 73] | dose-dependent effect | IC50 [6]: 1120 nM; EC50 ([7]; Homo sapiens, SW-620, 264 h, read-out: mean EC50, colony forming assay): 5430 ± 297 nM; EC50 [9]: 500 to 10000 nM |
| – | – | – | – | – | – | CCCNc1ccc2ncc(-c3ccc4[nH]ncc4c3)n2n1 [CHR-6494] | – | reduction of H3T3ph [12]: reduce H3T3ph |
| – | – | – | 7.14 nM | < 500 nM | 8.5 nM | NC(=O)c1cc2c([nH]1)-c1ccncc1O[C@H]2C1CCCCC1 (single isomer, unassigned) [Example 70] | dose-dependent effect | EC50 [13]: < 500 nM; GI50 [14]: 1000 to 10000 nM; GI50 [15]: 1000 to 10000 nM; GI50 [16]: < 1000 nM; GI50 [17]: 10000 to 100000 nM |
| 5000 nM | 1000 nM | 5000 nM | – | – | – | C[C@@H](Oc1cc(-c2cnn(C3CCNCC3)c2)cnc1N)c1c(Cl)ccc(F)c1Cl [Crizotinib, crizotinib, reference compound] | – | GI50 [18]: 5000 nM; GI50 [19]: 20000 nM |
